We go through 6 compounds from patent publication US8623919B2, “Method of synthesizing S-allyl-cysteine analogues and their therapeutic application in treating myocardial infarction” (Fudan University, priority 2007, dated 2014).

The subject of assay [1] is myocardial cells. Briefly: SOD activity (Hydroxylamine method) in hypoxia/reoxygenation injured myocardial cells. Format: cell-based, Sprague-Dawley (SD) rat. As to the method:
Myocardial cell samples were obtained from the same procedure of Example 1, the experiment groups were divided and hypoxia/reoxygenation experiments were performed on Control group, Vehicle group, SAC and analogue groups, same as the experiments in Example 1 with the same dosages and same conditions. Myocardial cells were obtained from each sample (10^6 myocardial cells/sample) from the Control group, Vehicle group, SAC and analogue groups. The cells were lysed under sterilized condition, and SOD (superoxide dismutase) activities in each sample of the cells were determined by Hydroxylamine method (a conventional method well known in the arts) using each microgram of protein per 1 milliliter reaction solution inhibits SOD activity to its 50% of original activity, in which the amount of SOD used in the reaction as standard of 1 unit of SOD activity.

Assay [2] relates to myocardial cells. Briefly: Lipid peroxidation (MDA, TBA) in hypoxia/reoxygenation injured myocardial cells. Particulars: 10^−5 mol/L. The format is cell-based, Sprague-Dawley (SD) rat. As to the method:
Myocardial cell samples were obtained from the same procedure of Example 1, the experiment groups were divided and hypoxia/reoxygenation experiments were performed on Control group, Vehicle group, SAC and analogue groups, same as the experiments in Example 1 with the same dosages and same conditions. Myocardial cells were obtained from each sample (10^6 myocardial cells/sample) from the Control group, Vehicle group, SAC and analogue groups. The cells were lysed under sterilized condition, and lipid peroxidation experiments on the samples were performed. Since oxygen free radical attacks poly unsaturated fatty acid in biomembrane, inducing lipid peroxidation and producing MDA (malondialdehyde). MDA can react with thiobarbituric acid (TBA), forms red product, which can be detected in spectrophotometer at 532 nm. […] The inhibition effect could be reversed by PAG.

In assay [3] the test system is rats following MI injury. Briefly: Infarct size after TTC staining in rats following MI injury. Conditions: 50 mg/Kg/day intraperitoneal, 7 days before and 2 days after ligation, 48 h after surgery, saline 36.0±1.3%. Format: in vivo, SD rats. As for the experimental part: (§1) SPRC and SAC were dissolved in saline (vehicle). Male SD rats (weight 200-250 g) were randomly assigned to […] treatment groups: group (1) Sham group: Sham-treated with saline (n=4), (2) Sham+SPRC group: Sham-treated with SPRC (50 mg/Kg/day) (n=4), (3) Sham+SAC group: Sham-treated with SAC (50 mg/Kg/day) (n=4), (4) MI group: MI treated with saline (n=8), (5) MI+SPRC group: MI treated with SPRC (50 mg/Kg/day) (n=8), (6) MI+SAC group: MI treated with SAC (50 mg/Kg/day) (n=8). Rats were pre-treated for seven days with each SAC analogues respectively via an intraperitoneal injection once daily before they were used for MI model studies. […] Briefly, the rats were anesthetized with 7% choral hydrate (60 mg/kg intraperitoneal injection), endotracheally intubated and mechanically ventilated with room air, respiratory rate 100 breaths/min, tidal volume 2.5 ml with a rodent ventilator (DHX-150, China). ECG was recorded in the anaesthetized animal for a period of one minute using the Animal Mflab200 amplifier (Produced in China). A left thoracotomy was performed and the third intercostal space was exposed. […] Then incisions were sutured and the chests were closed. […] Forty eight hours after the surgery, ECG was recorded for each rat in each group. […] To evaluate the effect of SPRC and SAC on MI, infarct size were measured after TTC staining (FIG. 12).

Assay [4] has as its system rats following MI injury. As to the kind of experiment: ECG in rats following MI injury. Particulars: 50 mg/Kg/day, day 10, 48 hr after the induction of MI. The format is in vivo, SD rats. As to the method:
as §1

The test system of assay [5] is rats following MI injury. Briefly: Serum LDH in rats (sham or MI). Format: in vivo, SD rats. Particulars: Sham rats; 50 mg/Kg/day intraperitoneal. As to the method: (§2) Animals were assigned and prepared the same as in Example 7, and dosages of SPRC and SAC were used the same in this example as in Example 7.
(§3) Serum CK levels were detected with diagnostic kit (NJBI, China) according to the instructions. LDH were determined calorimetrically with a spectrophotometer. Lipid peroxidation was measured in terms of MDA content using the thiobarbituric acid (TBA) assay. […] With regard to lipid peroxidation, the levels of MDA in MI groups increased at 48 h after myocardial infarction. […] (FIG. 14)

Assay [6] concerns rats following MI injury. Briefly: Serum CK in rats (sham or MI). The format is in vivo, SD rats. Particulars: Sham rats; 50 mg/Kg/day intraperitoneal. As to the method:
as §2, §3

In assay [7] the test system is rats following MI injury. Briefly: MDA content (TBA assay) in rats (sham or MI). The format is in vivo, SD rats. Conditions: Sham rats; 50 mg/Kg/day intraperitoneal. As to the method:
as §2, §3

Assay [8] concerns rats following MI injury. As to the kind of experiment: SOD activity in plasma of rats (sham or MI). Format: in vivo, SD rats. Conditions: 50 mg/Kg/day intraperitoneal. As to the method: as §2, §3
In assay [9] the test system is rats following MI injury. Briefly: Plasma H2S levels in rats (sham or MI). Format: in vivo, SD rats. Particulars: 50 mg/Kg/day intraperitoneal. As to the method:
as §2
(§4) The plasma levels of H2S in each treatment group were determined since CSE mediates the endogenous production of H2S in mammals. Plasma H2S concentrations in MI group rats at 48 h after MI induction were 34.7±5.6 μM (n=8). […] Left ventricular CSE activity was analyzed in the tissue homogenates from each treatment group (n=6). CSE activity was 1.58±0.15 μmol/g protein/hr in left the ventricular tissues in MI group and 2.19±0.32 μmol/g protein/hr in the MI+SAC treated rats.

For assay [10], the target named is T1, CSE (Rattus norvegicus, UniProt P18757).
T1 construct: from tissue; host or cells: rat left ventricle (homogenate), myocardial infarction model
As to the kind of experiment: Left ventricular CSE activity in tissue homogenates of rats. Format: in vivo, SD rats. Particulars: 50 mg/Kg/day; for CSE activity: left ventricle. As to the method: as §2, §4
SPRC administered rats had the highest CSE activity of 2.58±0.07 μmol/g protein/hr (p<0.01) (FIG. 15B). This observation correlated with the observed increases in H2S concentrations in the same treatment groups.

The test system of assay [11] is Bax. As to the kind of experiment: Western blot of Bax protein in left ventricle. The format is in vivo, SD rats. Particulars: MI rats, 50 mg/Kg/day, p<0.01.
Description: as §2

The test system of assay [12] is Bcl-2. As to the kind of experiment: Western blot of Bcl-2 protein in left ventricle. Particulars: MI rats, 50 mg/Kg/day, p<0.01. Format: in vivo, SD rats.
Description: as §2
A general note: A western blot detects proteins with antibodies after separation by electrophoresis.

Assay [13] relates to CSE. As to the kind of experiment: Western blot of CSE protein in left ventricle. The format is in vivo, SD rats. Conditions: MI rats, 50 mg/Kg/day, p<0.01.
Description: as §2

The subject of assay [14] is CSE mRNA. Briefly: RT-PCR of CSE mRNA in left ventricle. The format is in vivo, SD rats. Particulars: MI rats, 50 mg/Kg/day.
Description: as §2
(§5) To further verify the effects of SPRC and SAC, the expressions of Bcl-2, Bax and CSE mRNA were accessed by RT-PCR (FIG. 17). An isoform of the CSE gene was detected (GenBank; access no. AY641456). The relative amounts of CSE mRNA in Left ventricular subjected to MI were increase 3.3-fold and 1.5-fold following SPRC and SAC exposure as compared to the MI group.

Assay [15] has as its system Bax mRNA. As to the kind of experiment: RT-PCR of Bax mRNA in left ventricle. Particulars: MI rats, 50 mg/Kg/day, p<0.05. Format: in vivo, SD rats.
Description: as §2, §5

Assay [16] deals with Bcl-2 mRNA. As to the kind of experiment: RT-PCR of Bcl-2 mRNA in left ventricle. The format is in vivo, SD rats. Conditions: MI rats, 50 mg/Kg/day, p>0.05.
Description: as §2, §5

Assay [17] deals with H9c2 cells. Briefly: H9c2 cell viability by MTT method after H2O2 injury. The format is cell-based. Conditions: PAG group, PAG 10^−4 mol/L. As to the method:
(§6) H9c2 cells were cultured in DMEM with 10% of fetal bovine serum, 37 degree C. and 5% CO2 incubator. The monolayer culture was split at a 1:4 ratio or harvested to perform experiments when confluence was 70-80%. Adjust the density of the cells to […] and inoculate the cells on a 96 well plate.
Control group, no SAC analogues treatment, no H2O2 injured process.
(§7) H2O2 injury (Model) group, no SAC analogues treatment, under H2O2 200 μmol/L for 2 hours.
(§8) PAG group, PAG 10^−4/mol/L
(§9) SPRC dosage groups: SPRC 1E-7, SPRC 1E-6, SPRC 1E-5, the cell groups were treated with SPRC dosages of 10^−7 mol/L, 10^−6 mol/L, 10^−5 mol/L respectively.
(§10) SPRC dosage+PAG groups: the cell group was treated with SPRC dosages of 10^−5 mol/L and PAG 10^−4 mol/L.
H9c2 cell viability was assessed by MTT method. […] PAG is able to block the effect of SPRC.

The test system of assay [18] is H9c2 cells. Briefly: LDH leakage of H9c2 cells injured by H2O2. The format is cell-based. Conditions: PAG group, PAG 10^−4 mol/L. As for the experimental part:
as §6, §7, §8, §9, §10
The cell samples (10^6 cells/sample) from each group were lysed under sterilized condition, and LDH contents in each samples were tested by pyruvic acid production method.
In general terms: LDH in the medium is a marker of cell lysis.

Assay [19] relates to H9c2 cells. Briefly: Mn-SOD activity of H9c2 cells injured by H2O2. The format is cell-based. Conditions: PAG group, PAG 10^−4 mol/L. As for the experimental part:
(§11) H9c2 cells were cultured same as Example 12, the cells were then divided into the groups same as Example 12.
(§12) The cells were lysed under sterilized condition, and lipid peroxidation experiments on the samples were performed. […] The effect of SPRC could be blocked by PAG, indicating SPRC mediates its effect on H9c2 cell by way of endogenous H2S.

Assay [20] has as its system H9c2 cells. Briefly: MDA content of H9c2 cells injured by H2O2. The format is cell-based. Conditions: PAG group, PAG 10^−4 mol/L. As for the experimental part: as §11, §12

T1 sequence (P18757 whole entry): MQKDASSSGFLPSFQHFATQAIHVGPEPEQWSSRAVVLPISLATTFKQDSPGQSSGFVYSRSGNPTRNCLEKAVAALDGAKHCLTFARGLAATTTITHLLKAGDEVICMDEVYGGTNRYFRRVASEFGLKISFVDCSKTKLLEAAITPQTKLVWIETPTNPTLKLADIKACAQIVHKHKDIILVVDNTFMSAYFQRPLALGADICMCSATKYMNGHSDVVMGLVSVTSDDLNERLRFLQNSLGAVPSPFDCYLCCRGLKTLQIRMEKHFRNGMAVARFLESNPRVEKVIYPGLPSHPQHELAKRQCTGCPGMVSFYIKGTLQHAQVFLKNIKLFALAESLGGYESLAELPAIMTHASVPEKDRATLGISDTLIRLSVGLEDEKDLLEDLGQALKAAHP

Turning to `CCCCSC[C@H](N)C(=O)O` [SBC, S-butyl-L-cysteine], in assay [1] (10^−5 mol/L), the “Cu—Zn SOD activity in cytoplasm” value was “able to elevate”. Also, the “effect of PAG on elevating Cu—Zn SOD activity” value in assay [1] (with PAG) is listed as “PAG also reversed the effect”.

Consider `CCCSC[C@H](N)C(=O)O` [SPC, S-propyl-L-cysteine], for which the “Cu—Zn SOD activity in cytoplasm” value in assay [1] (10^−5 mol/L) is recorded as “able to elevate”. Further, in [1] (with PAG), the “effect of PAG on elevating Cu—Zn SOD activity” value is on record as “PAG also reversed the effect”. Also, the “lipid peroxidation (MDA)” value in assay [2] is given as “inhibited”.

Turning to `CCCCCSC[C@H](N)C(=O)O` [SPEC, S-pentyl-L-cysteine], the “Cu—Zn SOD activity in cytoplasm” value in [1] (10^−5 mol/L) is given as “able to elevate”. The “effect of PAG on elevating Cu—Zn SOD activity” value in [1] (with PAG) is given as “PAG also reversed the effect”.

Consider `C=CCSC[C@H](N)C(=O)O` [SAC, S-Allyl-Cysteine], for which the “infarct size/total area of myocardium” value in assay [3] was 24.9±1.9%. Also, in [4], the “ST-segment elevation in ECG” value is on record as “less elevated ST-segment”. Further, the LDH in [5] is 2599 ± 212 U/L. This compound displayed a CK in assay [6] of 0.250 ± 0.019 U/ml. In assay [7], this compound had an MDA of 3.57 ± 0.31 nmol/mL. The SOD turned out to be 107.1 ± 5.4 U/ml in [8] (MI rats, 48 h after MI) and 159.8 ± 4.8 U/ml in assay [8] (Sham rats). Moreover, the “H2S concentration in plasma” value in [9] (MI rats, 48 h after MI induction, 50 mg/kg/day) stood at 61.1 ± 3.6 µM; in assay [9] (Sham rats), 65.2 ± 4.4 µM. In addition, the CSE activity in [10] (MI rats) was 2.19 ± 0.32 μM/mgprot; in assay [10] (Sham rats), 2.31 ± 0.24 μM/mgprot. Further, in assay [10] (MI rats, left ventricular tissue homogenates, MI group 1.58±0.15), the “Left ventricular CSE activity” value came to 2.19±0.32 μmol/g protein/hr. Also, the Bax protein levels result in assay [11] is recorded as “down-regulated”. The Bcl-2 protein expression entry in [12] is listed as “up-regulated”. Also, the CSE protein expression result in assay [13] was “up-regulated”. In addition, in [14], the “relative amounts of CSE mRNA, increase as compared to the MI group” value came to 1.5 fold. In addition, the Bax gene expression entry in assay [15] was “down regulated”. The Bcl-2 gene expression result in assay [16] is given as “no significant differences”.

For `CCSC[C@H](N)C(=O)O` [SEC, S-ethyl-L-cysteine], the “Mn-SOD activity in mitochondria” value in assay [1] (10^−5 mol/L) was “able to elevate”. The “effect of PAG on elevating Mn-SOD activity” value in [1] (with PAG) is given as “PAG also reversed”. In assay [2], the “lipid peroxidation (MDA)” value is “inhibited”.

Take `C#CCC(N)C(=O)O` (racemic) [PAG, DL-propargylglycine, reference compound]: the “H9c2 Cell Survive” value in assay [17] was determined as 58.9 ± 1.2%. In addition, the “LDH Leakage” value in [18] is on record as 63.4 ± 1.2%. Besides, the “Mn-SOD Activity” value in assay [19] is 7.57 ± 0.83 U/mgprot. Besides, in assay [20], the “MDA Content” value is listed as 2.71 ± 0.26 nmol/mgprot.
